Biological target: T1, human TRPM8 (Homo sapiens, UniProt Q7Z2W7)
T1 construct: expressed in transfected cells; host or cells: Chinese hamster ovary (CHO) cells, T-REx tetracycline-inducible expression system (Invitrogen), co-transfected with pcDNA3.1 jellyfish aequorin
Test: Luminescence readout assay for measuring intracellular calcium (aequorin), hTRPM8 antagonism
Format: cell-based
Settings: CHO cell line expressing human TRPM8 and aequorin; activation by icilin, L-menthol or cold buffer (table does not say which)

T1 sequence (Q7Z2W7 whole entry): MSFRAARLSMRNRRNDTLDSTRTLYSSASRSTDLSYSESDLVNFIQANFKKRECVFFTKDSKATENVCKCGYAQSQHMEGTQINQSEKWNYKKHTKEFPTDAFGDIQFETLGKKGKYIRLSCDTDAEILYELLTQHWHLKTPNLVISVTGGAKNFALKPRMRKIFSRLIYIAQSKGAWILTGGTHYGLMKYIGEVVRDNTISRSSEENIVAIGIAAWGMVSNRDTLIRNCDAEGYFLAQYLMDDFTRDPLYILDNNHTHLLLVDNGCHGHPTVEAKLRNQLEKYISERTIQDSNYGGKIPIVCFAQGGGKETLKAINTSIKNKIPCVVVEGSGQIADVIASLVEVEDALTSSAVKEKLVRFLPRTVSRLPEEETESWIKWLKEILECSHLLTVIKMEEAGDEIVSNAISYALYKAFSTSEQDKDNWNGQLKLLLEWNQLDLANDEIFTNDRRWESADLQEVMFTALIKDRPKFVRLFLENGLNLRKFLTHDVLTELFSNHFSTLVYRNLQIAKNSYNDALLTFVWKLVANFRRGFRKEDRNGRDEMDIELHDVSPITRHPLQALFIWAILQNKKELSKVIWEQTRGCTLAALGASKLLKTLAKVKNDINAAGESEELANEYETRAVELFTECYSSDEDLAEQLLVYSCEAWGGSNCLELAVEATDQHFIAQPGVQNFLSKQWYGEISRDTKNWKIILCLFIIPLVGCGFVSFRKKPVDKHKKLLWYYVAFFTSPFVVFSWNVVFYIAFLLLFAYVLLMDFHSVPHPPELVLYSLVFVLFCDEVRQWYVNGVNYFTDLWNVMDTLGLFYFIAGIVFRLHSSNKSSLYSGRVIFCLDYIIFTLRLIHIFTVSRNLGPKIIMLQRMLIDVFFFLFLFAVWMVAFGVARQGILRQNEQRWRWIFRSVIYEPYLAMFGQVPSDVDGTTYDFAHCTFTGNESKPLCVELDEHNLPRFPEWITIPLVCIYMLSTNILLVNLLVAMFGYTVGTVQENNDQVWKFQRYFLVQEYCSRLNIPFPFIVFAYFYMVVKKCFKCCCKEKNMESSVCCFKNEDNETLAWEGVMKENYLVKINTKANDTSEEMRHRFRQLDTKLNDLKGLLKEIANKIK

First: C[C@H](NC(=O)N[C@@H](c1ccc(C(F)(F)F)cc1)c1ncccc1C(F)(F)F)c1cccc2ccccc12 [Example 33, 1-((S)-1-(naphthalen-1-yl)ethyl)-3-((S)-(4-(trifluoro-methyl)-phenyl)(3-(trifluoro-methyl)-pyridin-2-yl)-methyl)urea (2,2,2-trifluoro-acetate)]
Second: COc1ccc([C@H](C)NC(=O)N[C@@H](c2ccc(C(F)(F)F)cc2)c2ncccc2C(F)(F)F)cc1 [Example 80, 1-((S)-1-(4-methoxy-phenyl)ethyl)-3-((S)-(4-(trifluoro-methyl)-phenyl)(3-(trifluoro-methyl)-pyridin-2-yl)-methyl)urea (2,2,2-trifluoro-acetate)]
The IC50 of the first is 4.8-fold higher: 1900 nM for the first, 399 nM for the second. The second is the more potent here.

Compared with CCOC(=O)c1cccc(NC(=O)N[C@@H](c2ccc(C(F)(F)F)cc2)c2ncccc2C(F)(F)F)c1 [Example 90, (S)-ethyl 3-(3-((4-(trifluoro-methyl)-phenyl)(3-(trifluoro-methyl)-pyridin-2-yl)-methyl)-ureido)-benzoate (2,2,2-trifluoro-acetate)], O=C(Nc1cccc([N+](=O)[O-])c1)N[C@@H](c1ccc(C(F)(F)F)cc1)c1ncccc1C(F)(F)F [Example 100, (S)-1-(3-nitrophenyl)-3-((4-(trifluoro-methyl)-phenyl)(3-(trifluoro-methyl)-pyridin-2-yl)-methyl)urea (2,2,2-trifluoro-acetate)] is 4.5-fold lower in IC50: 646 nM for the first, 142 nM for the second. The second is the more potent here.

O=C(Nc1cncnc1)N[C@@H](c1ccc(C(F)(F)F)cc1)c1ncccc1C(F)(F)F [Example 57, (S)-1-(pyrimidin-5-yl)-3-((4-(trifluoro-methyl)-phenyl)(3-(trifluoro-methyl)-pyridin-2-yl)-methyl)urea] and FC(F)(F)c1ccc([C@H](NC(=S)Nc2cccnc2)c2ncccc2C(F)(F)F)cc1 [Example 122, (S)-1-(pyridin-3-yl)-3-((4-(trifluoro-methyl)-phenyl)(3-(trifluoro-methyl)-pyridin-2-yl)-methyl)-thiourea] are within 1.5-fold of each other in IC50: 167 nM for the first, 221 nM for the second.

Compared with CC(C)(C)CC(C)(C)NC(=O)N[C@@H](c1ccc(C(F)(F)F)cc1)c1ncccc1C(F)(F)F [Example 131, (S)-1-((4-(trifluoro-methyl)-phenyl)(3-(trifluoro-methyl)-pyridin-2-yl)-methyl)-3-(2,4,4-trimethylpentan-2-yl)urea (2,2,2-trifluoro-acetate)], CCOC(=O)CNC(=O)N[C@@H](c1ccc(C(F)(F)F)cc1)c1ncccc1C(F)(F)F [Example 38, (S)-ethyl 2-(3-((4-(trifluoro-methyl)-phenyl)(3-(trifluoro-methyl)-pyridin-2-yl)-methyl)-ureido)acetate (2,2,2-trifluoro-acetate)] is 2.3-fold higher in IC50: 666 nM for the first, 1500 nM for the second.

Compared with CC#Cc1cccnc1[C@@H](NC(=O)N[C@@H](C)C(F)(F)F)c1ccc(C(F)(F)F)cc1 [Example 150, 1-((S)-(3-(prop-1-yn-1-yl)pyridin-2-yl)(4-(trifluoro-methyl)-phenyl)-methyl)-3-((S)-1,1,1-trifluoro-propan-2-yl)-urea], Cc1cccc(C(C)C)c1NC(=O)N[C@@H](c1ccc(C(F)(F)F)cc1)c1ncccc1C(F)(F)F [Example 92, (S)-1-(2-isopropyl-6-methylphenyl)-3-((4-(trifluoro-methyl)-phenyl)(3-(trifluoro-methyl)-pyridin-2-yl)-methyl)urea (2,2,2-trifluoro-acetate)] is 15-fold higher in IC50: 48 nM for the first, 713 nM for the second. The first is the more potent here.

Compared with O=C(Nc1ccc(C(=O)O)cc1)N[C@@H](c1ccc(OC(F)(F)F)c(F)c1)c1ncccc1F [Example 180, (S)-4-(3-((3-Fluoro-4-(trifluoromethoxy)phenyl)(3-fluoropyridin-2-yl)methyl)ureido)benzoic acid], Cn1cc(NC(=O)N[C@@H](c2ccc(C(F)(F)F)cc2)c2ncccc2F)ccc1=O [Example 162, (S)-1-((3-fluoropyridin-2-yl)(4-(trifluoro-methyl)-phenyl)-methyl)-3-(1-methyl-6-oxo-1,6-dihydropyridin-3-yl)urea] is 6.6-fold lower in IC50: 3240 nM for the first, 491 nM for the second.

Compared with COc1cc(CNC(=O)N[C@@H](c2ccc(C(F)(F)F)cc2)c2ncccc2C(F)(F)F)cc(OC)c1OC [Example 111, (S)-1-((4-(trifluoro-methyl)-phenyl)(3-(trifluoro-methyl)-pyridin-2-yl)-methyl)-3-(3,4,5-trimethoxy-benzyl)urea (2,2,2-trifluoro-acetate)], COc1ccc(C)cc1NC(=O)N[C@@H](c1ccc(C(F)(F)F)cc1)c1ncccc1C(F)(F)F [Example 183, (S)-1-(2-methoxy-5-methylphenyl)-3-((4-(trifluoro-methyl)phenyl) (3-(trifluoro-methyl)pyridin-2-yl)methyl)urea (2,2,2-trifluoro-acetate)] is 4.2-fold lower in IC50: 2380 nM for the first, 560 nM for the second. The second is the more potent here.

Going from O=C(NCc1ccc(Br)cc1)N[C@@H](c1ccc(C(F)(F)F)cc1)c1ncccc1C(F)(F)F [Example 125, (S)-1-(4-bromobenzyl)-3-((4-(trifluoro-methyl)-phenyl)(3-(trifluoro-methyl)-pyridin-2-yl)-methyl)urea (2,2,2-trifluoro-acetate)] to O=C(NCc1ccccc1)N[C@@H](c1ccc(C(F)(F)F)cc1)c1ncccc1C(F)(F)F [Example 109, (S)-1-benzyl-3-((4-(trifluoro-methyl)-phenyl)(3-(trifluoro-methyl)-pyridin-2-yl)-methyl)urea (2,2,2-trifluoro-acetate)], the IC50 falls from 561 nM to 110 nM (5.1-fold).

O=C(NCc1ccc(Cl)cc1Cl)N[C@@H](c1ccc(C(F)(F)F)cc1)c1ncccc1C(F)(F)F [Example 135, (S)-1-(2,4-dichlorobenzyl)-3-((4-(trifluoro-methyl)-phenyl)(3-(trifluoro-methyl)-pyridin-2-yl)-methyl)urea (2,2,2-trifluoro-acetate)] and O=C(Nc1cnc2ccccc2c1)N[C@@H](c1ccc(C(F)(F)F)cc1)c1ncccc1C(F)(F)F [Example 59, (S)-1-(quinolin-3-yl)-3-((4-(trifluoro-methyl)-phenyl)(3-(trifluoro-methyl)-pyridin-2-yl)-methyl)urea] are within 1.5-fold of each other in IC50: 829 nM for the first, 640 nM for the second.

Going from O=C(Nc1cccnc1)NC(c1cc(F)cc(Cl)c1)c1ncccc1F (centres unmarked) [Example 24, 1-((3-chloro-5-fluoro-phenyl)(3-fluoropyridin-2-yl)methyl)-3-(pyridin-3-yl)urea (2,2,2-trifluoro-acetate)] to O=C(Nc1cccnc1)N[C@@H](c1ccccc1)c1ncccc1C(F)(F)F [Example 20, (S)-1-(phenyl(3-(trifluoro-methyl)-pyridin-2-yl)-methyl)-3-(pyridin-3-yl)-urea], the IC50 rises from 674 nM to 1310 nM (1.9-fold). The first is the more potent here.

First: CCc1ccc([C@H](NC(=O)Nc2cccnc2)c2ncccc2C(F)(F)F)cc1 [Example 27, (S)-1-((4-ethylphenyl)-(3-(trifluoro-methyl)-pyridin-2-yl)-methyl)-3-(pyridin-3-yl)-urea]
Second: O=C(NCC1CCS(=O)(=O)C1)N[C@@H](c1ccc(C(F)(F)F)cc1)c1ncccc1C(F)(F)F (stereo partly drawn) [Example 64, 1-((3- Sulfonylcyclopentyl)-methyl)-3-((S)-(4-(trifluoro-methyl)-phenyl)(3-(trifluoro-methyl)-pyridin-2-yl)-methyl)urea (2,2,2-trifluoro-acetate)]
The IC50 of the first is 140-fold lower: 41 nM for the first, 5650 nM for the second. The first is the more potent here.

Work on O=C1CCC(OC(=O)N[C@@H](c2ccc(OC(F)(F)F)c(F)c2)c2ncccc2F)CN1 (stereo partly drawn) [Example 178, 6-Oxopiperidin-3-yl((S)-(3-fluoro-4-(trifluoromethoxy)phenyl)(3-fluoropyridin-2-yl)methyl)carbamate] yielded an IC50 of 2060 nM.

Reference: patent US8778941B2, “TRPM8 antagonists and their use in treatments” (AMGEN Inc., priority 2011, dated 2014)
